Measurements as given in ChEMBL document CHEMBL1201862, “PubChem BioAssay data set” (2004).
Calls of active or inactive are those of the source.

How the values were obtained:
Cytochrome P450 2D6 = Cytochrome P450 2D6 (Homo sapiens, UniProt P10635);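 further: CYP2D6 member of a cytochrome P450 panel assay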
Cytochrome P450 1A2 = target: T1, Cytochrome P450 1A2 (Homo sapiens, UniProt P05177);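 further: PubChem cytochrome P450 panel assay, CYP1A2 panel member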
T1 sequence (P05177 whole entry): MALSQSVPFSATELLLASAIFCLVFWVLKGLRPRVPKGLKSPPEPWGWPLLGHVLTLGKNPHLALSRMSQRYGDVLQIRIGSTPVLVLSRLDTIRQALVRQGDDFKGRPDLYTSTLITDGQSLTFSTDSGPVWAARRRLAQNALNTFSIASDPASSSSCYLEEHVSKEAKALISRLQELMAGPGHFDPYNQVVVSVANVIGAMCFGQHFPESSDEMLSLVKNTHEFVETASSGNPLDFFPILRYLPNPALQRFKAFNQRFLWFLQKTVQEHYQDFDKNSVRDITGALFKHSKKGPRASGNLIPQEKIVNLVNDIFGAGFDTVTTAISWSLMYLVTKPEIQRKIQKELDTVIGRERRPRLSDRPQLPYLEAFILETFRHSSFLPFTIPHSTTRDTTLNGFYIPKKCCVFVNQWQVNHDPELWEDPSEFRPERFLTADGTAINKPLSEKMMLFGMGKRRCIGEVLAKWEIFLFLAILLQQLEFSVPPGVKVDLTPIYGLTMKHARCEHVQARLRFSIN

Streptococcus = assay: GAS UMAA2166 growth inhibition – luminescence, BacTiterGlo, counter-screen for streptokinase expression inhibitor project, dose response (AID 1915); type: functional, organism-based;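 further: potency for reduction of bacterial viability or growth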
[1] = test system: Streptococcus sp. 'group A'; assay: Streptococcus pyogenes SK(-)GAS viability under kanamycin – luminescence, BacTiterGlo, confirmation, counter-screen for streptokinase expression inhibitor project, dose response (AID 1900); type: functional, organism-based
Streptokinase A = target: T2, Streptokinase A (Streptococcus pyogenes serotype M1, UniProt P10520); assay: viability-normalized secreted streptokinase activity reduction – plasminogen activation absorbance, OD405, dose response (AID 1914); type: functional, Streptococcus pyogenes M1 GAS;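 further: secreted streptokinase activity via plasminogen activation per viability signal from cell pellet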
T2 sequence (P10520 whole entry): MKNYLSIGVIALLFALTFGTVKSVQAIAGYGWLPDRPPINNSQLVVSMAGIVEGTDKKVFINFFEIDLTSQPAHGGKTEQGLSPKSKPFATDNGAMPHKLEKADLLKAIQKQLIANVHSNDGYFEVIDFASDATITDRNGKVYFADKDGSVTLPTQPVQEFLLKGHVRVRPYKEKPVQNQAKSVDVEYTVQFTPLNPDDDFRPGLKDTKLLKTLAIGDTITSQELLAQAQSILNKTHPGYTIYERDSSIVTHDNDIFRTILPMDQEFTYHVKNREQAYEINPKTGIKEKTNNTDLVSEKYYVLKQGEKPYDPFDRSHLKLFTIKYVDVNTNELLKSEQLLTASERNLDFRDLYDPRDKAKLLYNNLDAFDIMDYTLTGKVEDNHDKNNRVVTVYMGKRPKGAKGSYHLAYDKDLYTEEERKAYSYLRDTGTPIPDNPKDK

[2] = target: T3, Rac GTPase-activating protein 1 (Homo sapiens, UniProt Q9H0H5); assay: blockers of MgcRacGAP-driven Rac1 GTP hydrolysis – biochemical, ADP Hunter fluorescence, primary and confirmatory, confirmation (AID 624330); type: functional
T3 sequence (Q9H0H5 whole entry): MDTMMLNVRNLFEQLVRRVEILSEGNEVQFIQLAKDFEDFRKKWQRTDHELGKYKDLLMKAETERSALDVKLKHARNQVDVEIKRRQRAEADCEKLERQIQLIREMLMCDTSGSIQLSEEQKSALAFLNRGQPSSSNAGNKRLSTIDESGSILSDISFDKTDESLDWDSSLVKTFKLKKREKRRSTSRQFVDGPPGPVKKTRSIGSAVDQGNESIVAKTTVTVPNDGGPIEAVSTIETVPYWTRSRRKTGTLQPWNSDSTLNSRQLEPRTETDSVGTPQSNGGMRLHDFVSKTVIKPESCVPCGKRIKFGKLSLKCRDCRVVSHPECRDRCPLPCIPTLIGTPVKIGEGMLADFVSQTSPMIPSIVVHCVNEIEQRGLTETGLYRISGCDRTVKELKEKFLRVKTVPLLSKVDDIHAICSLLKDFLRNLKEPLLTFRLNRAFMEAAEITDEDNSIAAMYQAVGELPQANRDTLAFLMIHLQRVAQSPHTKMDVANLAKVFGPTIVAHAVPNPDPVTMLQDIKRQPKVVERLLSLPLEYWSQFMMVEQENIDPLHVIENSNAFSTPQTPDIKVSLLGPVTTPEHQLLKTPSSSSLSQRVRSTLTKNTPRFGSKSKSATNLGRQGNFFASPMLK

Cytochrome P450 2C9 = Cytochrome P450 2C9 (Homo sapiens, UniProt P11712)
Cytochrome P450 2C19 = Cytochrome P450 2C19 (Homo sapiens, UniProt P33261); assay: Cytochrome panel assay with activity outcomes. Panel member name: p450-cyp2c19 Compounds with AC50 equal or less than 10 uM are considered active; type: functional
Cytochrome P450 2C19, sequence (P33261 whole entry): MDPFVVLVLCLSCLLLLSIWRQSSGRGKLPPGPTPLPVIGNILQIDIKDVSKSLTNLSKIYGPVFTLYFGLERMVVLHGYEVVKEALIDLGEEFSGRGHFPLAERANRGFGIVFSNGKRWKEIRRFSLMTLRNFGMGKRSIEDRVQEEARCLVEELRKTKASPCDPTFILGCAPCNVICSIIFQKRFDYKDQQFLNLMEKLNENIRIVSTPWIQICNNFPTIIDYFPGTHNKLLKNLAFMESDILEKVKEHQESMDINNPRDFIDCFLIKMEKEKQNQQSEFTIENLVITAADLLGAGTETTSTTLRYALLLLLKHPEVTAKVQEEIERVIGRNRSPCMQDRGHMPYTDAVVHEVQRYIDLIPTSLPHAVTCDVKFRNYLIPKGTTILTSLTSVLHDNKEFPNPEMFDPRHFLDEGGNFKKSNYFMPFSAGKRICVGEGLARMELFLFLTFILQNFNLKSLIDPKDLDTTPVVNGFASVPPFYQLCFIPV

Cytochrome P450 2C9, sequence (P11712 whole entry): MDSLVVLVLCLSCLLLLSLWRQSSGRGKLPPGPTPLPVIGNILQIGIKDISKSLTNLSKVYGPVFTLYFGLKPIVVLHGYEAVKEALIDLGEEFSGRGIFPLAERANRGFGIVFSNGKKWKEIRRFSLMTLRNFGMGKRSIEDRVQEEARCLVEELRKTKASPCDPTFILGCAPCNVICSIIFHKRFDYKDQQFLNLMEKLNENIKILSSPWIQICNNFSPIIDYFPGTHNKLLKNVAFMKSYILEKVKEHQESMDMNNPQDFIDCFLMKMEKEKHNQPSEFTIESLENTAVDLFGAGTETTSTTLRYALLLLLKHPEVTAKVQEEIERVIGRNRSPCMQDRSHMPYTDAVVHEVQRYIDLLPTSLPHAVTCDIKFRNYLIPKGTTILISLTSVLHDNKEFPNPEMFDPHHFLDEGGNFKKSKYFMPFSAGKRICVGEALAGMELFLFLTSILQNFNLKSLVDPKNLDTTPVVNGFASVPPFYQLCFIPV
Cytochrome P450 2D6, sequence (P10635 whole entry): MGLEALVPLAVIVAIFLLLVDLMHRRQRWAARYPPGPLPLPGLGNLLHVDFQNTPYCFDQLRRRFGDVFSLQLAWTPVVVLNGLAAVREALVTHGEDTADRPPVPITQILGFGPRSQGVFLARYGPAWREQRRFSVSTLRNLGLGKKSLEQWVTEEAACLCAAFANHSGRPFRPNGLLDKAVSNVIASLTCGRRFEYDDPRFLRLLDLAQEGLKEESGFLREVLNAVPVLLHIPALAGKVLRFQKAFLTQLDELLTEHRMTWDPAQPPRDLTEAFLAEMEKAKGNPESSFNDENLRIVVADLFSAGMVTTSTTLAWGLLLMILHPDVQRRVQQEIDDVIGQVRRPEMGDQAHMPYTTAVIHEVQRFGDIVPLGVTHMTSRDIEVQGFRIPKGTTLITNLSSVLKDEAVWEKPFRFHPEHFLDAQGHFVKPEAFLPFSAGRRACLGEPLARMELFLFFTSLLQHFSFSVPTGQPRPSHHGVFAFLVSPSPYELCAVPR

Structure (SMILES): N#Cc1ccc(OC(=O)c2ccc(NC(=N)N)cc2)cc1.c1ccncc1
- AC50 (Cytochrome P450 2D6): 3.16 µM (inconclusive)
- AC50 (Cytochrome P450 1A2): 2.51 µM (inconclusive)

Structure (SMILES): CC(C)CN(Cc1cc(=O)oc2cc3c(cc12)CCCC3)CC(C)C
- EC50 (Streptococcus): 21.2 µM (active)
- EC50 [1]: 6.12 µM (active)
- EC50 (Streptokinase A): 5.67 µM (active)

Structure (SMILES): COc1cc(/C=C/C(=O)OCC(=O)NCC2CCCCC2)ccc1O
- IC50 [2]: 39.3 µM (active)

Structure (SMILES): Cn1cc(-c2nc3cnc(N4CCNCC4)nc3n(CCc3ccccc3)c2=O)c2ccccc21
- AC50 (Cytochrome P450 2D6): 39.8 µM (inconclusive)
- AC50 (Cytochrome P450 1A2): 15.8 µM (inconclusive)

Structure (SMILES): COc1ccc(NC(=O)NCCCN2CCCCC2C)cc1 (stereo not drawn)
- AC50 (Cytochrome P450 2C9): 1.26 µM (inconclusive)
- AC50 (Cytochrome P450 2C19; read-out: AC50): 39.8 µM (inconclusive)
- AC50 (Cytochrome P450 1A2): 25.1 µM (inconclusive)

Structure (SMILES): c1nc(NCCN2CCOCC2)c2cc(-c3ccc4c(c3)OCO4)ccc2n1
- AC50 (Cytochrome P450 2C19; read-out: AC50): 39.8 µM (inconclusive)

Structure (SMILES): Oc1ccc(Cc2ccccc2Cl)c(O)c1
- IC50 [2]: 54.8 µM (active)

Structure (SMILES): COc1ccc(N=Nc2cc(-c3ccccc3)ccc2O)cc1
- EC50 (Streptococcus): > 150 µM (not active)
- EC50 [1]: 34.7 µM (active)
- EC50 (Streptokinase A): 7.22 µM (active)

Structure (SMILES): CCOc1cc(/C=N\n2nnnc2N)ccc1O
- IC50 [2]: 32.1 µM (active)

Structure (SMILES): CCOC(=O)c1sc(/N=C/c2ccc(O)cc2O)cc1C
- IC50 [2]: 22.4 µM (active)

Structure (SMILES): Cc1ccc(-c2ncccc2OC(=O)C23CC4CC(CC(C4)C2)C3)cc1
- AC50 (Cytochrome P450 2C9): 31.6 µM (inconclusive)
- AC50 (Cytochrome P450 2D6): 22.4 µM (inconclusive)

Structure (SMILES): N#Cc1cccc(NC(=O)N2CC[C@@]3(CCCN(S(=O)(=O)c4ccccc4)C3)C2)c1
- AC50 (Cytochrome P450 2C9): 39.8 µM (inconclusive)
- AC50 (Cytochrome P450 2C19; read-out: AC50): 39.8 µM (inconclusive)
- AC50 (Cytochrome P450 2D6): 39.8 µM (inconclusive)
- AC50 (Cytochrome P450 1A2): 25.1 µM (inconclusive)

Structure (SMILES): COc1ccc2[nH]cc(CCNc3ccnc(-c4ccccc4C(F)(F)F)n3)c2c1
- AC50 (Cytochrome P450 2D6): 15.8 µM (inconclusive)

Structure (SMILES): Cc1cnc(CNc2ncncc2-c2ccc3c(c2)OCO3)cn1
- AC50 (Cytochrome P450 2D6): 20 µM (inconclusive)

Structure (SMILES): COc1cc(/C=C2\C(=N)N3N=C(CC(=O)N4CCOCC4)SC3=NC2=O)ccc1O
- IC50 [2]: 159 µM (active)

Structure (SMILES): O=C(CCc1ccccc1)Nc1nnc(-c2ccc3c(c2)CCCC3)o1
- EC50 (Streptococcus): 26.2 µM (active)
- EC50 [1]: 3.21 µM (active)
- EC50 (Streptokinase A): > 150 µM (not active)

Structure (SMILES): CCn1c(=S)sc2c(O)nc(SCC(=O)Nc3cc(OC)ccc3OC)nc21
- EC50 (Streptococcus): > 150 µM (not active)
- EC50 [1]: 6.33 µM (active)
- EC50 (Streptokinase A): 17.8 µM (inconclusive)

Structure (SMILES): COc1ccc(O[C@H]2C=C[C@@H](c3ccccc3)O[C@H]2CO/N=C\C[C@@H]2C=C[C@H](OC(C)=O)[C@H](COC(C)=O)O2)cc1
- AC50 (Cytochrome P450 2C9): 3.16 µM (inconclusive)

Structure (SMILES): O=C(Nc1ncc2c(n1)-c1ccccc1CC2)c1cccc(Cl)c1
- AC50 (Cytochrome P450 2C9): 20 µM (inconclusive)
- AC50 (Cytochrome P450 1A2): 2.82 µM (inconclusive)

Structure (SMILES): N=C(N)SCC(=O)O
- AC50 (Cytochrome P450 2C19): inconclusive

Structure (SMILES): CCOC(=O)c1[nH]c2ccccc2c1N=C(S)Nc1cccc(C)c1
- IC50 [2]: 115 µM (active)
